We go through two molecules from article PMC9154793, “Design, synthesis, and biological evaluation of triazole-pyrimidine-methylbenzonitrile derivatives as dual A2A/A2B adenosine receptor antagonists” (Journal of Enzyme Inhibition and Medicinal Chemistry, 2022).

This test deals with T1, human A2B AR (Homo sapiens, UniProt P29275).
T1 sequence (P29275 1-332): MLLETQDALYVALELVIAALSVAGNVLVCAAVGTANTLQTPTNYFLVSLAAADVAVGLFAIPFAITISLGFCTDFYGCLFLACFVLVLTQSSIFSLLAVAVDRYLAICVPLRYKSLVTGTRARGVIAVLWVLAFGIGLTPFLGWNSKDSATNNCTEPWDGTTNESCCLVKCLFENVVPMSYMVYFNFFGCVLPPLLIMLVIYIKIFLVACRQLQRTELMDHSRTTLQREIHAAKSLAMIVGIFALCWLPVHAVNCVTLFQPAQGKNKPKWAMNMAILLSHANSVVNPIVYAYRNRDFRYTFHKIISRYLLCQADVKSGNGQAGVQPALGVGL
In words: cAMP functional assay in CHO-K1/ADORA2b/Gα15 cells (NECA-stimulated, HTRF). As to conditions: for inhibition at 0.1 µM: compound at 100 nM, relative to ZM241385 at 1 μM, read-out: hA2B AR (%) inhibition of cAMP, 100 nM. The test is classed as cell-based.

Method: In the cAMP assay, CHO-K1/ADORA2A/Gα15 cells expressing human A2A AR and CHO-K1/ADORA2b/Gα15 cells expressing human A2B AR were activated by 5′-(N-ethylcarboxamido)adenosine (NECA) and triggered the accumulation of intracellular cAMP concentration.
CHO-K1/ADORA2A/Gα15 cells expressing human A2A AR and CHO-K1/ADORA2b/Gα15 cells expressing human A2B AR were both constructed by Genscript Biotech Corporation. […] The test stock solutions were diluted with different gradients for use. The procedure was exemplified by the cAMP functional assay on the A2A receptor: 10,000 cells/well of CHO-K1/ADORA2A/Gα15 were seeded in a 384-well plate in 20 μl of assay buffer. […] Then, 10 μl of detection reagent (cAMP-d2 and anti-cAMP-Eu3+) was added into each well of the plate and incubated at room temperature for 1 h.

For the molecule `Cc1c(C#N)cccc1-c1cc(-c2cn(Cc3cccc(C#N)n3)nn2)nc(N)n1` [Compound 7f, 6-((4-(2-Amino-6-(3-cyano-2-methylphenyl)pyrimidin-4-yl)-1H-1,2,3-triazol-1-yl)methyl)picolinonitrile], the inhibition at 0.01 µM (CHO-K1, compound at 10 nM, mean ± SEM, read-out: hA2B AR percentage of inhibition (I%) of cAMP, 10 nM (converted)) was 10.8%. In addition, for the setting “CHO-K1, mean ± SEM”, the inhibition at 0.1 µM came out at 102.6 ± 0.24%.
In the case of `Cc1c(C#N)cccc1-c1cc(-c2cn(Cc3cccc(C(N)=O)n3)nn2)nc(N)n1` [Compound 7i, 6-((4-(2-Amino-6-(3-cyano-2-methylphenyl)pyrimidin-4-yl)-1H-1,2,3-triazol-1-yl)methyl)picolinamide], the IC50 (CHO cells expressing hA2B AR, mean ± SEM, read-out: cAMP IC50 hA2B AR) came to 14.1 ± 2.05 nM. In addition, the inhibition at 0.1 µM (CHO-K1, mean ± SEM) came out at 103.3 ± 0.63%. Moreover, the “fold more active than AB928 (cAMP IC50, A2B AR)” value (ratio of cAMP IC50 values vs AB928) amounted to 1.8 fold.
